Legend:
isolated rat islets [1] = assay: Glucose-stimulated insulin secretion by perifused islets after cryopreservation; assay type: cell-based
Method: FIG. 2 graphs glucose stimulation of insulin secretion in islets cryopreserved with different cryoprotectants. After one week of cryopreservation, islets were thawed and cultured overnight before being tested for response to 16.7 mM glucose stimulation. The 16.7 mM glucose stimulated insulin secretion was assessed by normalizing data as percent basal insulin secretion for each group of islets. Data represent mean±SEM.
The present invention is based on the hypothesis that the low molecular weight (MW) compounds, DMSO and glycerol, permeate the cell and interact hydrophobically with intracellular proteins thereby perturbing the cyto-skeletal architecture of frozen cells, and diminishing islet cell integrity and function. […] Using a programmable temperature controller, samples of pre-counted islets were then frozen under liquid nitrogen, in the presence of either 2M DMSO (MW=0.078 kD), 3M glycerol (MW=0.092 kD), 5% polyethylene glycol (PEG, MW=20 kD), or 10% polyvinylpyrrolidone (PVP, MW=40 kD), and stored at −80° C. for 1 week. Following thawing, intact islet recovery was determined by islet counting after Dithizone staining. Islet function was assessed by determination of glucose-stimulated insulin secretion in perifusion experiments with Krebs-Ringer bicarbonate buffer, pH 7.4, containing either basal (3.3 mM) or high (16.7 mM) glucose concentrations. […]

islets = details: DMSO as cryoprotectant, compared to freshly isolated islets; cited from earlier work
isolated rat islets [2] = assay: Recovery of intact islets after cryopreservation and thawing (islet counting after Dithizone staining); assay type: cell-based; parameters: key: Severe = +++; Mild = +; details: 2M DMSO, 3M glycerol, 5% PEG or 10% PVP
Method: The present invention is based on the hypothesis that the low molecular weight (MW) compounds, DMSO and glycerol, permeate the cell and interact hydrophobically with intracellular proteins thereby perturbing the cyto-skeletal architecture of frozen cells, and diminishing islet cell integrity and function. Isolated rat islets were cultured overnight (16-24 hr) at 37° C., in RPMI medium supplemented with 10% fetal calf serum and 1% mixture of Penicillin/Streptomycin. Using a programmable temperature controller, samples of pre-counted islets were then frozen under liquid nitrogen, in the presence of either 2M DMSO (MW=0.078 kD), 3M glycerol (MW=0.092 kD), 5% polyethylene glycol (PEG, MW=20 kD), or 10% polyvinylpyrrolidone (PVP, MW=40 kD), and stored at −80° C. for 1 week. Following thawing, intact islet recovery was determined by islet counting after Dithizone staining. Islet function was assessed by determination of glucose-stimulated insulin secretion in perifusion experiments with Krebs-Ringer bicarbonate buffer, pH 7.4, containing either basal (3.3 mM) or high (16.7 mM) glucose concentrations. After thawing samples of frozen islets, the mean±SEM % intact islet recovery was higher with PVP compared to DMSO (82±4.6 versus 62.7±3.1% respectively, p<0.005, n=9). […]

| SMILES | function of cryopreserved islets compared to freshly isolated islets (isolated rat islets [1]) | loss in the number and function of islets after thawing (islets) | Fragment (fragmentation of islets after thawing) (isolated rat islets [2]) |
| --- | --- | --- | --- |
| C[S+](C)[O-] [DMSO, Dimethylsulfoxide] | impaired | 30-50% | +++ |
| OCC(O)CO [GLY, glycerol] | impaired | – | +++ |

Reference: patent US20050191282A1, “Method of cryopreserving pancreatic islet cells” (priority 2004, published 2005)
